Measured values taken from PubChem BioAssay AID2060506 (Molecular Pharmacology Branch, DTP, NCI, 2025).
Values joined by “and” are separate entries in the source; they are usually repeats but may differ in a detail not shown here. Equal entries are not always repeated.

Test system: 598228-144-R-J1-PDC complex spheroid viability
Test: Anticancer human tumor 598228-144-R-J1-PDC patient-derived serous endometrial adenocarcinoma cell line growth inhibition [GQUAD]
Conditions: for viability, T/C: stronger effect = lower value; active = viability on the fitted dose curve at most 10% of control; inactive = the rest
Text: DNA G-quadruplex Stabilizer Agents in Combinations in Complex Spheroids
A high-throughput screen of multi-cell type tumor spheroids was designed to identify active combinations of DNA G-quadruplex stabilizer agents and targeted small molecules. Complex spheroids include a stromal component modeled by human endothelial cells (HUVEC) and fibroblasts modeled by human mesenchymal stem cells (MSCs). The concentration ranges selected for each drug and investigational agent were based upon clinically achievable concentrations if the clinical Cmax of the agent was known.
Compounds. The drugs and investigational agents: pidnarulex (CX-5461; NSC782164), APTO-253 (NSC789042), BRACO-19 (NSC847499), peposertib (NSC802822), ceralasertib (NSC780249), elimusertib (NSC800525), camonsertib (NSC841442), AZD-1390 (NSC803789), olaparib (NSC753686), talazoparib (NSC767125), ART-558 (NSC835418), sotorasib (NSC818433), MRTX-1133 (NSC836407), SN-38 (NSC673596), topotecan (NSC609699), etoposide (NSC141540), doxorubicin (NSC123127), gemcitabine (NSC613327), 5-fluorouracil (NSC19893), paclitaxel (NSC125973), vemurafenib (NSC761431), panobinostat (NSC761190), R-306465 (JNJ-16241199; NSC773264), adavosertib (NSC754352), TP-3654 (NSC805149), carboplatin (NSC241240), KSQ-4279 (NSC840948), and staurosporine (NSC755774) were obtained from the National Cancer Institute (NCI) Developmental Therapeutics Program Chemical Repository (34). The FDA-approved anticancer drug set is available from the NCI Developmental Therapeutics Program. […] The stock solutions were prepared in dimethyl sulfoxide (DMSO, Sigma-Aldrich, St. Louis, MO, cat. D2650) at 800-fold the tested concentration and stored at -70 degrees C prior to their use. All drugs and investigational agents were tested over a range starting from a high concentration at or near the clinical Cmax and decreasing in half-log increments. If the clinical Cmax for an agent had not been determined, the highest concentration tested was 10 microM.
2.3 Cell Culture. All cells were maintained in an incubator at 37 degrees C and 5% CO2 with 95% humidity. The PDC lines were cultured according to standard operating procedures established by the NCI PDMR. All PDCs were thawed and cultured in Matrigel-coated flasks prepared with a working solution of 1X Ham's F-12 nutrient mix, without supplementation (Invitrogen, cat. 11765054), 100 U/mL penicillin-streptomycin (Invitrogen, cat. 15140122), and 2.5% Matrigel (Corning Inc., cat. 354248) for the first three passages. The 857933-349-R-J2-PDC line was cultured in 6C/Colon 1B media, which includes advanced DMEM/F-12 (Thermo Fisher Scientific, cat. 12634028), 10 mM HEPES (Thermo Fisher Scientific, cat. 15630080), 1X GlutaMAX supplement (Thermo Fisher Scientific, cat. 35050061), 0.1 mg/mL primocin (InvivoGen, cat. ant-pm-2), 10% defined fetal bovine serum, heat inactivated (HyClone Laboratories Inc., cat. SH30070.03HI), 50% L-WRN conditioned media (ATCC, cat. CRL-3276), 1.25 mM N-Acetyl-L-cysteine (Sigma-Aldrich, cat. A9165), 10 mM nicotinamide (Sigma-Aldrich, cat. N0636), 1X B-27 supplement (Thermo Fisher Scientific, cat. 17504044), 1X N-2 supplement (Thermo Fisher Scientific, cat. 17502048), 10 microM Y-27632 dihydrochloride (Tocris Bioscience, cat. 1254), and 50 ng/mL human EGF recombinant protein (Thermo Fisher Scientific, cat. PHG0311). The 485176-168-R4-J1-PDC line was cultured in Panc media, which includes all 6C/Colon 1B media components plus 100 ng/mL human FGF-10 (Thermo Fisher Scientific, cat. 100-26), 500 nM SB-431542 (Selleckchem, cat. S1067), and gastrin (Tocris, cat. 3006).
[…]

[1] = curve of first compound, second compound 0.0316 µM
[2] = curve of first compound, second compound 0.1 µM
[3] = curve of first compound, second compound 0.316 µM
[4] = curve of first compound, second compound 1 µM
[5] = curve of first compound, second compound 3.16 µM
[6] = curve of first compound, second compound 10 µM
[7] = second compound 0.0316 µM, first compound 0.0316 µM
[8] = second compound 0.0316 µM, first compound 0.1 µM
[9] = second compound 0.0316 µM, first compound 0.316 µM
[10] = second compound 0.0316 µM, first compound 1 µM
[11] = second compound 0.0316 µM, first compound 3.16 µM
[12] = second compound 0.0316 µM, first compound 10 µM
[13] = second compound 0.1 µM, first compound 0.0316 µM
[14] = second compound 0.1 µM, first compound 0.1 µM
[15] = second compound 0.1 µM, first compound 0.316 µM
[16] = second compound 0.1 µM, first compound 1 µM
[17] = second compound 0.1 µM, first compound 3.16 µM
[18] = second compound 0.1 µM, first compound 10 µM
[19] = second compound 0.316 µM, first compound 0.0316 µM
[20] = second compound 0.316 µM, first compound 0.1 µM
[21] = second compound 0.316 µM, first compound 0.316 µM
[22] = second compound 0.316 µM, first compound 1 µM
[23] = second compound 0.316 µM, first compound 3.16 µM
[24] = second compound 0.316 µM, first compound 10 µM
[25] = second compound 1 µM, first compound 0.0316 µM
[26] = second compound 1 µM, first compound 0.1 µM
[27] = second compound 1 µM, first compound 0.316 µM
[28] = second compound 1 µM, first compound 1 µM
[29] = second compound 1 µM, first compound 3.16 µM
[30] = second compound 1 µM, first compound 10 µM
[31] = second compound 3.16 µM, first compound 0.0316 µM
[32] = second compound 3.16 µM, first compound 0.1 µM
[33] = second compound 3.16 µM, first compound 0.316 µM
[34] = second compound 3.16 µM, first compound 1 µM
[35] = second compound 3.16 µM, first compound 3.16 µM
[36] = second compound 3.16 µM, first compound 10 µM
[37] = second compound 10 µM, first compound 0.0316 µM
[38] = second compound 10 µM, first compound 0.1 µM
[39] = second compound 10 µM, first compound 0.316 µM
[40] = second compound 10 µM, first compound 1 µM
[41] = second compound 10 µM, first compound 3.16 µM
[42] = second compound 10 µM, first compound 10 µM
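Note: spheroids exposed to the agents for one week before reading.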
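Throughout, for viability, T/C: percent of vehicle DMSO control viability so 100% = untreated growth.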

C=CC(=O)N1CCN(c2nc(=O)n(-c3c(C)ccnc3C(C)C)c3nc(-c4c(O)cccc4F)c(F)cc23)C(C)C1 (configuration not stated) + Cc1[nH]c2ccc(F)cc2c1-c1nc2c3cccnc3c3ncccc3c2[nH]1
> 10000 nM: IC50 [1] | IC50 [2] | IC50 [3] | IC50 [4] | IC50 [6]
inactive: viability, T/C [7] 119% | viability, T/C [8] 95% | viability, T/C [9] 105% | viability, T/C [10] 132% | viability, T/C [11] 136% | viability, T/C [12] 123% | viability, T/C [13] 88.4% | viability, T/C [14] 110% | viability, T/C [15] 102% | viability, T/C [16] 129% | viability, T/C [17] 136% | viability, T/C [18] 151% | viability, T/C [19] 75.9% | viability, T/C [20] 94.8% | viability, T/C [21] 99.5% | viability, T/C [22] 108% | viability, T/C [23] 159% | viability, T/C [24] 108% | viability, T/C [25] 58.6% | viability, T/C [26] 62.9% | viability, T/C [27] 63.7% | viability, T/C [28] 75.6% | viability, T/C [29] 89.3% | viability, T/C [30] 101% | viability, T/C [31] 36.1% | viability, T/C [32] 37.2% | viability, T/C [33] 55.9% | viability, T/C [34] 57.7% | viability, T/C [35] 59.5% | viability, T/C [36] 70% | viability, T/C [37] 57.1% | viability, T/C [38] 75.6% | viability, T/C [39] 63.8% | viability, T/C [40] 69.1% | viability, T/C [41] 80.9% | viability, T/C [42] 103%
< 31.6 nM: IC50 [5]

CC1COCCN1c1cc(-c2ccnn2C)c2ccnc(-c3ccn[nH]3)c2n1 (configuration not stated)
inactive: viability, T/C (compound 0.0316 µM) 76% and 72.5% and 81.6% | viability, T/C (compound 0.1 µM) 52.9% and 44.2% and 42.1% | viability, T/C (compound 0.316 µM) 37.5% and 47.8% and 36.9% | viability, T/C (compound 1 µM) 43.9% and 35.5% and 42.2% | viability, T/C (compound 3.16 µM) 50% and 39.5% and 40.7% | viability, T/C (compound 10 µM) 39.6% and 33.4% and 38.9%
140 nM and 91.6 nM and 79 nM: IC50 (curve of compound)

O=C(NO)c1cnc(N2CCN(S(=O)(=O)c3ccc4ccccc4c3)CC2)nc1 + Cc1cnc(CNC(=O)c2c(=O)c3ccc(N4CCCN(C)CC4)nc3n3c2sc2ccccc23)cn1
inactive: viability, T/C [7] 92.8% | viability, T/C [8] 49.6% | viability, T/C [9] 22.8% | viability, T/C [13] 80.1% | viability, T/C [14] 52% | viability, T/C [15] 25.3% | viability, T/C [19] 69.4% | viability, T/C [20] 38.7% | viability, T/C [21] 16.6% | viability, T/C [25] 51.6% | viability, T/C [26] 30.6% | viability, T/C [31] 38.1%
103 nM: IC50 [1]
< 31.6 nM: IC50 [5] | IC50 [6]
34.5 nM: IC50 [4]
114 nM: IC50 [2]
active: viability, T/C [10] 0.83% | viability, T/C [11] 0.39% | viability, T/C [12] 0.19% | viability, T/C [16] 1.24% | viability, T/C [17] 0.16% | viability, T/C [18] 0.23% | viability, T/C [22] 0.27% | viability, T/C [23] 0.14% | viability, T/C [24] 0.14% | viability, T/C [27] 0.25% | viability, T/C [28] 0.31% | viability, T/C [29] 0.15% | viability, T/C [30] 0.19% | viability, T/C [32] 0.34% | viability, T/C [33] 0.31% | viability, T/C [34] 0.23% | viability, T/C [35] 0.19% | viability, T/C [36] 0.21% | viability, T/C [37] 0.42% | viability, T/C [38] 0.28% | viability, T/C [39] 0.56% | viability, T/C [40] 0.4% | viability, T/C [41] 0.29% | viability, T/C [42] 0.25%
66.6 nM: IC50 [3]

CC1COCCN1c1cc(C2(S(C)(=N)=O)CC2)nc(-c2ccnc3[nH]ccc23)n1 (configuration not stated)
inactive: viability, T/C (compound 0.0316 µM) 91.8% and 116% and 77.8% | viability, T/C (compound 0.1 µM) 83.7% and 108% and 99.1% | viability, T/C (compound 0.316 µM) 88.9% and 94.8% and 83.4% | viability, T/C (compound 1 µM) 77.9% and 77.5% and 88.2% | viability, T/C (compound 3.16 µM) 60.3% and 46.7% and 97.7% | viability, T/C (compound 10 µM) 39.3% and 49.6% and 47.7%
5530 nM and 5370 nM and 9390 nM: IC50 (curve of compound)

CC(C)(O)C1CCC(Nc2ccc3ncc(-c4cccc(C(F)(F)F)c4)n3n2)CC1 (configuration not stated) + Cc1cnc(CNC(=O)c2c(=O)c3ccc(N4CCCN(C)CC4)nc3n3c2sc2ccccc23)cn1
< 31.6 nM: IC50 [6]
398 nM: IC50 [5]
inactive: viability, T/C [7] 76.5% | viability, T/C [8] 93.7% | viability, T/C [9] 73.2% | viability, T/C [10] 62.9% | viability, T/C [11] 16.7% | viability, T/C [12] 17.8% | viability, T/C [13] 73.7% | viability, T/C [14] 69.2% | viability, T/C [15] 70.2% | viability, T/C [16] 46.4% | viability, T/C [17] 22.9% | viability, T/C [18] 10.9% | viability, T/C [19] 77% | viability, T/C [20] 53.6% | viability, T/C [21] 74.7% | viability, T/C [22] 56.1% | viability, T/C [23] 17.7% | viability, T/C [24] 17.6% | viability, T/C [25] 64.2% | viability, T/C [26] 45.9% | viability, T/C [27] 58.2% | viability, T/C [28] 65.8% | viability, T/C [29] 13.6% | viability, T/C [30] 18.3% | viability, T/C [31] 51.2% | viability, T/C [32] 56.8% | viability, T/C [33] 55.2% | viability, T/C [34] 32.6% | viability, T/C [37] 25.4% | viability, T/C [38] 0.49% | viability, T/C [39] 33%
887 nM: IC50 [2]
1260 nM: IC50 [4]
active: viability, T/C [35] 0.22% | viability, T/C [36] 0.19% | viability, T/C [40] 0.33% | viability, T/C [41] 0.26% | viability, T/C [42] 5.96%
1200 nM: IC50 [3]
1390 nM: IC50 [1]

CC1COCCN1c1cc(C2(O)CC3CCC(C2)O3)c2cnn(-c3ccn[nH]3)c2n1 (configuration not stated)
inactive: viability, T/C (compound 0.0316 µM) 68.6% and 72.1% and 69.9% | viability, T/C (compound 0.1 µM) 40% and 42.8% and 48.9% | viability, T/C (compound 0.316 µM) 41.1% and 40% and 42.5% | viability, T/C (compound 1 µM) 33% and 40.1% and 34.1% | viability, T/C (compound 3.16 µM) 22.5% and 33.5% and 32.9% | viability, T/C (compound 10 µM) 11.1% and 15% and 15.1%
101 nM and 134 nM and 154 nM: IC50 (curve of compound)
